Source: patent US12643881B2, “Bicyclic amine CDK12 inhibitors” (Incyte Corporation, priority 2021, dated 2026)

What follows are molecules tested against T1, CDK12 complexed with Cyclin K (Homo sapiens, UniProt Q9NYV4) (assay: Alternative CDK Enzymatic Assays (HTRF, pre-incubation with compounds and 1 mM ATP), Example A2). Conditions: enzyme pre-incubated with compounds and 1 mM ATP for 60 minutes; reaction 120 minutes at 25° C.
T1 construct: GST (N)
Assay type: biochemical
How it was run: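 GST-tagged human CDK12 co-expressed with full-length Cyclin K (baculovirus), pre-incubated 60 min with compounds and 1 mM ATP; reaction started with 1 mM ATP and 50 nM ULight-4E-BP1 peptide, 120 min at 25 °C, pH 7.5 HEPES. EDTA-stopped, Eu-anti-phospho-4E-BP1 HTRF (665/620 nm); IC50 from 3- or 4-parameter fit vs DMSO/no-enzyme controls.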

T1 sequence (Q9NYV4 whole entry): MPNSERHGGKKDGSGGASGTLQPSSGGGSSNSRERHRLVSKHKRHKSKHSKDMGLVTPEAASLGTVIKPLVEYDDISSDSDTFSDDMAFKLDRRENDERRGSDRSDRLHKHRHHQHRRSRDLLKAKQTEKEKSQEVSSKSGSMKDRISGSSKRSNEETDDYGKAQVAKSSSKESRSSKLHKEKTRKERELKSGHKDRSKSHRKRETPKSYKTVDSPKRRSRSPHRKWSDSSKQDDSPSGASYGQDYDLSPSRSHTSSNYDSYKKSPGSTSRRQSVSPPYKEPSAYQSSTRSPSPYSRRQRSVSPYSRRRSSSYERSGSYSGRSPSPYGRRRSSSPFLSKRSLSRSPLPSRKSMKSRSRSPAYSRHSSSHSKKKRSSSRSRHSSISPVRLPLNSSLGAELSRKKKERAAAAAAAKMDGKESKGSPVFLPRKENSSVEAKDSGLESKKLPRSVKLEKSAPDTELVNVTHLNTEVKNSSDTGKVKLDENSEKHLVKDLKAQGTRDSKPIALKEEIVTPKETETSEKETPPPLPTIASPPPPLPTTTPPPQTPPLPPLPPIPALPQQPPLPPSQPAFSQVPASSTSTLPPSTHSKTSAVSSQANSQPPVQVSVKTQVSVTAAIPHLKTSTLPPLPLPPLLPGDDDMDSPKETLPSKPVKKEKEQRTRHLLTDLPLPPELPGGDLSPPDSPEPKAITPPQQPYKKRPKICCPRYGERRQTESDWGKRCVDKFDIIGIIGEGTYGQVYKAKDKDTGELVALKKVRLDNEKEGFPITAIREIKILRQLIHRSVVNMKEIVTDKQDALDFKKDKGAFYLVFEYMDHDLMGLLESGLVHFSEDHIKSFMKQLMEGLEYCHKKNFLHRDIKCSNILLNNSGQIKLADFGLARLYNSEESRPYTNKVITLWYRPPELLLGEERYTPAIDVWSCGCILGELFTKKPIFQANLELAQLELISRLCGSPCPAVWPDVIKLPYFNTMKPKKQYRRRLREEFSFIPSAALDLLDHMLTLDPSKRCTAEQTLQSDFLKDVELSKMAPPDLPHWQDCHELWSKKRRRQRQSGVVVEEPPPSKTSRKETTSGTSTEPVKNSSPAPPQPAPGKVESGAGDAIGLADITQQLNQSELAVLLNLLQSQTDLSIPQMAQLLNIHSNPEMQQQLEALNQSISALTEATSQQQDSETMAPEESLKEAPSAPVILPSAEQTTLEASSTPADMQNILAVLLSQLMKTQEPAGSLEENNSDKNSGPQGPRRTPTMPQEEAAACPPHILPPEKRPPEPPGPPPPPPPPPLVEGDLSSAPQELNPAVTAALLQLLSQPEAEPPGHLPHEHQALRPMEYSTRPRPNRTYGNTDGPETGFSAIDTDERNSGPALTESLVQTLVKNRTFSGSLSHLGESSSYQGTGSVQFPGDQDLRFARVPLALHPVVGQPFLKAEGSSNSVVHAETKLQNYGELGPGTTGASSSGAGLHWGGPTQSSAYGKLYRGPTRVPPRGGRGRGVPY
T1 sequence (O75909 whole entry partner): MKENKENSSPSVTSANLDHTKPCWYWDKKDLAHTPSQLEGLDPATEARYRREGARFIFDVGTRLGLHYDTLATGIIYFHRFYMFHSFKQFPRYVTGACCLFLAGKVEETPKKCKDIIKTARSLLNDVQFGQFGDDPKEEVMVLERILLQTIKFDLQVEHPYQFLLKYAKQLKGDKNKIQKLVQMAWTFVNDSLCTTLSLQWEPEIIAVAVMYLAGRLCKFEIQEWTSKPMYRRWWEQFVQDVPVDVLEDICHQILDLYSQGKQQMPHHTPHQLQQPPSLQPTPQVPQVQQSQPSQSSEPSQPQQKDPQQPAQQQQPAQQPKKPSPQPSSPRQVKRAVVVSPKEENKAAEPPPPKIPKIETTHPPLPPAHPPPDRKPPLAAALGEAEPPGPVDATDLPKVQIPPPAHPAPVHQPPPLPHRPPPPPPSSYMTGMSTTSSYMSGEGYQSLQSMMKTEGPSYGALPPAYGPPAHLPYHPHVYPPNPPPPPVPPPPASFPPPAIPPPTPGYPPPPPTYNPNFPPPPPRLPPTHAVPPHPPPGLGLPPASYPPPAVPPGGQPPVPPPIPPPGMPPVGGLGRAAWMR

IC50 [nM] | SMILES
50 to 500 | CC#CC(=O)N1C[C@@H]2C[C@H]1CN2c1nccn2c(N3C[C@H](F)C[C@@H](Nc4ncc(C(F)(F)F)cn4)C3)ncc12 [Example 106, 1-((1S,4S)-5-(3-((3R,5R)-3-Fluoro-5-((5-(trifluoromethyl)pyrimidin-2-yl)amino)piperidin-1-yl)imidazo[1,5-a]pyrazin-8-yl)-2,5-diazabicyclo[2.2.1]heptan-2-yl)but-2-yn-1-one]
> 500 | Cc1cc2c(cc1NC(=O)/C=C/CN(C)C)nc(N1C[C@H](F)C[C@@H](Nc3ncc(C(F)(F)F)cn3)C1)n2C [Example 120, (E)-4-(Dimethylamino)-N-(2-((3R,5R)-3-fluoro-5-((5-(trifluoromethyl)pyrimidin-2-yl)amino)piperidin-1-yl)-1,6-dimethyl-1H-benzo[d]imidazol-5-yl)but-2-enamide]
50 to 500 | C=CC(=O)Nc1c(C)cc2c(nc(N3C[C@H](F)C[C@@H](Nc4ncc(C(F)(F)F)cn4)C3)n2C)c1Br [Example 146, N-(4-Bromo-2-((3R,5R)-3-fluoro-5-((5-(trifluoromethyl)pyrimidin-2-yl)amino)piperidin-1-yl)-1,6-dimethyl-1H-benzo[d]imidazol-5-yl)acrylamide]
< 50 | C=CC(=O)Nc1ccc2c(c1)nc(N1CCC[C@@H](Nc3ncc(C(F)(F)F)s3)C1)n2C [Example 130, (R)—N-(1-Methyl-2-(3-((5-(trifluoromethyl)thiazol-2-yl)amino)piperidin-1-yl)-1H-benzo[d]imidazol-5-yl)acrylamide]
> 500 | Cc1cc2c(cc1NC(=O)/C=C\CN(C)C)nc(N1C[C@H](F)C[C@@H](Nc3ncc(C(F)(F)F)cn3)C1)n2C [Example 119, (Z)-4-(Dimethylamino)-N-(2-((3R,5R)-3-fluoro-5-((5-(trifluoromethyl)pyrimidin-2-yl)amino)piperidin-1-yl)-1,6-dimethyl-1H-benzo[d]imidazol-5-yl)but-2-enamide]
< 50 | C=CC(=O)Nc1ccc2c(c1)nc(N1CCC(F)(F)[C@@H](Nc3ncc(C#N)cn3)C1)n2C [Example 127, (S)—N-(2-(3-((5-Cyanopyrimidin-2-yl)amino)-4,4-difluoropiperidin-1-yl)-1-methyl-1H-benzo[d]imidazol-5-yl)acrylamide]
< 50 | C=CC(=O)Nc1ccc2c(c1)nc(N1CCC[C@@H](Nc3ncc(C#N)s3)C1)n2C [Example 129, (R)—N-(2-(3-((5-Cyanothiazol-2-yl)amino)piperidin-1-yl)-1-methyl-1H-benzo[d]imidazol-5-yl)acrylamide]
< 50 | C=CC(=O)Nc1ccc2c(c1)nc(N1CC[C@@H](F)[C@@H](Nc3ncc(C#N)cn3)C1)n2C [Example 125, N-(2-((3S,4R)-3-((5-Cyanopyrimidin-2-yl)amino)-4-fluoropiperidin-1-yl)-1-methyl-1H-benzo[d]imidazol-5-yl)acrylamide]
< 50 | C=CC(=O)Nc1cc2nc(N3C[C@H](F)C[C@@H](Nc4ncc(C#N)c(NC)n4)C3)n(C)c2cc1C [Example 158, N-(2-((3R,5R)-3-((5-Cyano-4-(methylamino)pyrimidin-2-yl)amino)-5-fluoropiperidin-1-yl)-1,6-dimethyl-1H-benzo[d]imidazol-5-yl)acrylamide]
50 to 500 | C=CC(=O)Nc1c(C)cc2c(nc(N3C[C@H](F)C[C@@H](Nc4ncc(C#N)cn4)C3)n2C)c1Br [Example 145, N-(4-Bromo-2-((3R,5R)-3-((5-cyanopyrimidin-2-yl)amino)-5-fluoropiperidin-1-yl)-1,6-dimethyl-1H-benzo[d]imidazol-5-yl)acrylamide]
< 50 | C=CC(=O)Nc1cc2nc(N3CCC[C@@H](Nc4ncc(C(F)(F)F)cn4)C3)n(C)c2cc1C1CC1 [Example 150, (R)—N-(6-Cyclopropyl-1-methyl-2-(3-((5-(trifluoromethyl)pyrimidin-2-yl)amino)piperidin-1-yl)-1H-benzo[d]imidazol-5-yl)acrylamide]
50 to 500 | C=CC(=O)N1C[C@@H]2C[C@H]1CN2c1nccn2c(N3C[C@H](F)C[C@@H](Nc4ncc(C(F)(F)F)cn4)C3)ncc12 [Example 107, 1-((1S,4S)-5-(3-((3R,5R)-3-Fluoro-5-((5-(trifluoromethyl)pyrimidin-2-yl)amino)piperidin-1-yl)imidazo[1,5-a]pyrazin-8-yl)-2,5-diazabicyclo[2.2.1]heptan-2-yl)prop-2-en-1-one]
50 to 500 | C=CC(=O)Nc1cc2nc(N3C[C@H](F)C[C@@H](Nc4ncc(C(F)(F)F)cn4)C3)n(C)c2cc1CC [Example 131, N-(6-Ethyl-2-((3R,5R)-3-fluoro-5-((5-(trifluoromethyl)pyrimidin-2-yl)amino)piperidin-1-yl)-1-methyl-1H-benzo[d]imidazol-5-yl)acrylamide]
50 to 500 | C=CC(=O)Nc1cc2nc(N3C[C@H](F)C[C@@H](Nc4ncc(C#N)c(N(C)C)n4)C3)n(C)c2cc1C [Example 157, N-(2-((3R,5R)-3-((5-Cyano-4-(dimethylamino)pyrimidin-2-yl)amino)-5-fluoropiperidin-1-yl)-1,6-dimethyl-1H-benzo[d]imidazol-5-yl)acrylamide]
< 50 | C=CC(=O)Nc1ccc2c(c1)nc(N1CC[C@H](F)[C@@H](Nc3ncc(C#N)cn3)C1)n2C [Example 126, N-(2-((3S,4S)-3-((5-Cyanopyrimidin-2-yl)amino)-4-fluoropiperidin-1-yl)-1-methyl-1H-benzo[d]imidazol-5-yl)acrylamide]
< 50 | [2H]C([2H])([2H])c1cc2c(cc1NC(=O)C=C)nc(N1C[C@H](F)C[C@@H](Nc3ncc(C(F)(F)F)cn3)C1)n2C [Example 135, N-(2-((3R,5R)-3-Fluoro-5-((5-(trifluoromethyl)pyrimidin-2-yl)amino)piperidin-1-yl)-1-methyl-6-(methyl-d3)-1H-benzo[d]imidazol-5-yl)acrylamide]
< 50 | C=CC(=O)Nc1cc2nc(N3CCC[C@@H](Nc4ncc(C(F)(F)F)cn4)C3)n(C)c2cc1CC [Example 153, (R)—N-(6-Ethyl-1-methyl-2-(3-((5-(trifluoromethyl)pyrimidin-2-yl)amino)piperidin-1-yl)-1H-benzo[d]imidazol-5-yl)acrylamide]
< 50 | C=CC(=O)Nc1cc2nc(N3C[C@H](F)C[C@@H](Nc4ncc(C(F)(F)F)cn4)C3)n(C)c2cc1C [Example 100, N-(2-((3R,5R)-3-fluoro-5-((5-(trifluoromethyl)pyrimidin-2-yl)amino)piperidin-1-yl)-1,6-dimethyl-1H-benzo[d]imidazol-5-yl)acrylamide]
50 to 500 | C=CC(=O)Nc1cc2nc(N3C[C@H](F)C[C@@H](Nc4ncc(C(F)(F)F)cn4)C3)n(C)c2cc1N1CCOCC1 [Example 139, N-(2-((3R,5R)-3-Fluoro-5-((5-(trifluoromethyl)pyrimidin-2-yl)amino)piperidin-1-yl)-1-methyl-6-morpholino-1H-benzo[d]imidazol-5-yl)acrylamide]
